Measured values published in publication PMC12656268, “Venom Peptides Across Asian and American Tarantulas Utilize Dual Pharmacology to Target Activation and Fast Inactivation of Voltage-Gated Sodium Channels” (Toxins, 2025).
“Also recorded” adds a separate entry of the source. Positions of bridges follow the written chain, without caps; N, C: chain ends. Residues, ends and D or L forms follow the SMILES beside them.

Experiments:
[1] = system: NaV1.7; experiment: Voltage dependence of steady-state inactivation and activation, NaV1.7; assay type: cell-based, human
Description: The voltage dependence of steady-state activation was assessed by recording sodium currents evoked by depolarizing voltage steps ranging from −110 mV to +80 mV in 5 mV increments. Peak conductance (GNa) was derived using the equation G = I/(V − Vrev), where I denotes the measured current, V the applied membrane potential, and Vrev the sodium reversal potential. To evaluate the voltage dependence of steady-state fast inactivation, a two-pulse protocol was used. Cells were conditioned with 500 ms pre-pulses at potentials between −130 mV and −10 mV (10 mV increments), followed by a 20 ms test depolarization to 0 mV to elicit sodium currents. The steady-state fast inactivation currents were plotted as I/Imax, where I = current value and Imax = highest current value within the experiment. The voltage-dependence of steady-state activation and inactivation were determined either in the absence of peptide or following 5 min exposure to peptide at the respective IC50 concentration at the NaV subtype analyzed to streamline the investigation using an effective single concentration as previously described by us.
(§1) For calcium influx experiments, bioactivity comparisons between venom fractions and controls were based on the difference between the maximal and minimal fluorescence intensity values obtained from single-replicate assays. Electrophysiological data analysis was conducted using GraphPad Prism (version 8; GraphPad Software, San Diego, CA, USA). Nonlinear regression was applied to fit the concentration–response relationships using a variable Hill slope: log(inhibitor) versus normalized response for determining IC50 values, and log(agonist) versus normalized response for EC50 calculations. Reversibility and dissociation kinetics were analyzed by fitting data with a single-phase exponential decay model, while voltage-dependence of steady-state activation and inactivation parameters were derived from Boltzmann sigmoid fits of normalized conductance (G/Gmax) or current (I/Imax) values to determine the half-activation or half-inactivation voltages (V50). Data are expressed as mean ± SEM, where n represents the number of individual cells analyzed.

[2] = system: hNaV1.1 to hNaV1.7; experiment: NaV subtype preference across NaV1.1 to NaV1.7, patch clamp; assay type: cell-based, human; conditions: NaV1.1 to NaV1.7, closed-state voltage protocol
Description: (§2) Unless otherwise specified, all cell culture reagents were obtained from Life Technologies (Carlsbad, CA, USA). The human neuroblastoma cell line SH-SY5Y (ATCC CRL-2266; Manassas, VA, USA) was maintained in RPMI medium supplemented with 15% fetal bovine serum (FBS) and 2 mM L-glutamine. HEK293 cells stably expressing human NaV channel isoforms together with the β1 auxiliary subunit (SB Drug Discovery, Glasgow, UK) were propagated in Minimal Essential Medium (MEM; Sigma-Aldrich, St. Louis, MO, USA) containing 10% FBS, 100 U/mL penicillin, 100 µg/mL streptomycin, 2 mM L-glutamine, and selective antibiotics (blasticidin, geneticin, and zeocin) at concentrations recommended by the supplier. HEK293T cells expressing the human CaV3.2 channel (a generous gift from Prof. Emmanuel Bourinet, Institut de Génomique Fonctionnelle, Université de Montpellier, France, and Prof. Edward Perez-Reyes, University of Virginia School of Medicine, USA) were grown in Dulbecco’s MEM supplemented with 10% FBS, 100 U/mL penicillin, 100 µg/mL streptomycin, and 750 µg/mL geneticin.
Sodium channel currents were recorded from HEK293 cells expressing human NaV isoforms together with the β1 auxiliary subunit (SB Drug Discovery, Glasgow, UK) using the QPatch 16X automated whole-cell patch-clamp platform (Sophion Bioscience A/S, Ballerup, Denmark). The external recording solution contained (in mM) the following: 140 NaCl, 3 KCl, 1 CaCl2, 1 MgCl2, 0.1 CdCl2, 20 tetraethylammonium chloride (TEA-Cl), and 5 HEPES; pH was adjusted to 7.3 and osmolarity to 320 mOsm. The internal (pipette) solution consisted of (in mM) the following: 140 CsF, 10 NaCl, 10 HEPES, and 1/5 EGTA/CsOH, also adjusted to pH 7.3 and 320 mOsm. […] For determining the potency of Oa1a peptides to inhibit peak current, the maximum peak current within the 20 ms at 0 mV was measured. For determining the potency of Oa1a-NH2 to slow fast inactivation, peak current values were measured at 20 ms of the 0 mV depolarization step. […]
as §1, with “Electrophysiological data analysis was conducted using GraphPad Prism (version 8; GraphPad Software, San Diego, CA, USA). Nonlinear regression was applied to fit the concentration–response relationships using a variable Hill slope: log(inhibitor) versus normalized response for determining IC50 values, and log(agonist) versus normalized response for EC50 calculations.” left out

[3] = target: hNaV1.2 (Homo sapiens, UniProt Q99250); experiment: hNaV1.2 peak current inhibition, automated whole-cell patch clamp (QPatch 16X); assay type: cell-based; conditions: HEK293 + β1; holding −80 mV, 20 ms step to 0 mV from −120 mV 200 ms prepulse; 5 min incubation; mean ± SEM, 3 to 9 independent experiments; read-out: IC50, inhibition of peak current, NaV1.2
hNaV1.2, sequence (Q99250 whole entry): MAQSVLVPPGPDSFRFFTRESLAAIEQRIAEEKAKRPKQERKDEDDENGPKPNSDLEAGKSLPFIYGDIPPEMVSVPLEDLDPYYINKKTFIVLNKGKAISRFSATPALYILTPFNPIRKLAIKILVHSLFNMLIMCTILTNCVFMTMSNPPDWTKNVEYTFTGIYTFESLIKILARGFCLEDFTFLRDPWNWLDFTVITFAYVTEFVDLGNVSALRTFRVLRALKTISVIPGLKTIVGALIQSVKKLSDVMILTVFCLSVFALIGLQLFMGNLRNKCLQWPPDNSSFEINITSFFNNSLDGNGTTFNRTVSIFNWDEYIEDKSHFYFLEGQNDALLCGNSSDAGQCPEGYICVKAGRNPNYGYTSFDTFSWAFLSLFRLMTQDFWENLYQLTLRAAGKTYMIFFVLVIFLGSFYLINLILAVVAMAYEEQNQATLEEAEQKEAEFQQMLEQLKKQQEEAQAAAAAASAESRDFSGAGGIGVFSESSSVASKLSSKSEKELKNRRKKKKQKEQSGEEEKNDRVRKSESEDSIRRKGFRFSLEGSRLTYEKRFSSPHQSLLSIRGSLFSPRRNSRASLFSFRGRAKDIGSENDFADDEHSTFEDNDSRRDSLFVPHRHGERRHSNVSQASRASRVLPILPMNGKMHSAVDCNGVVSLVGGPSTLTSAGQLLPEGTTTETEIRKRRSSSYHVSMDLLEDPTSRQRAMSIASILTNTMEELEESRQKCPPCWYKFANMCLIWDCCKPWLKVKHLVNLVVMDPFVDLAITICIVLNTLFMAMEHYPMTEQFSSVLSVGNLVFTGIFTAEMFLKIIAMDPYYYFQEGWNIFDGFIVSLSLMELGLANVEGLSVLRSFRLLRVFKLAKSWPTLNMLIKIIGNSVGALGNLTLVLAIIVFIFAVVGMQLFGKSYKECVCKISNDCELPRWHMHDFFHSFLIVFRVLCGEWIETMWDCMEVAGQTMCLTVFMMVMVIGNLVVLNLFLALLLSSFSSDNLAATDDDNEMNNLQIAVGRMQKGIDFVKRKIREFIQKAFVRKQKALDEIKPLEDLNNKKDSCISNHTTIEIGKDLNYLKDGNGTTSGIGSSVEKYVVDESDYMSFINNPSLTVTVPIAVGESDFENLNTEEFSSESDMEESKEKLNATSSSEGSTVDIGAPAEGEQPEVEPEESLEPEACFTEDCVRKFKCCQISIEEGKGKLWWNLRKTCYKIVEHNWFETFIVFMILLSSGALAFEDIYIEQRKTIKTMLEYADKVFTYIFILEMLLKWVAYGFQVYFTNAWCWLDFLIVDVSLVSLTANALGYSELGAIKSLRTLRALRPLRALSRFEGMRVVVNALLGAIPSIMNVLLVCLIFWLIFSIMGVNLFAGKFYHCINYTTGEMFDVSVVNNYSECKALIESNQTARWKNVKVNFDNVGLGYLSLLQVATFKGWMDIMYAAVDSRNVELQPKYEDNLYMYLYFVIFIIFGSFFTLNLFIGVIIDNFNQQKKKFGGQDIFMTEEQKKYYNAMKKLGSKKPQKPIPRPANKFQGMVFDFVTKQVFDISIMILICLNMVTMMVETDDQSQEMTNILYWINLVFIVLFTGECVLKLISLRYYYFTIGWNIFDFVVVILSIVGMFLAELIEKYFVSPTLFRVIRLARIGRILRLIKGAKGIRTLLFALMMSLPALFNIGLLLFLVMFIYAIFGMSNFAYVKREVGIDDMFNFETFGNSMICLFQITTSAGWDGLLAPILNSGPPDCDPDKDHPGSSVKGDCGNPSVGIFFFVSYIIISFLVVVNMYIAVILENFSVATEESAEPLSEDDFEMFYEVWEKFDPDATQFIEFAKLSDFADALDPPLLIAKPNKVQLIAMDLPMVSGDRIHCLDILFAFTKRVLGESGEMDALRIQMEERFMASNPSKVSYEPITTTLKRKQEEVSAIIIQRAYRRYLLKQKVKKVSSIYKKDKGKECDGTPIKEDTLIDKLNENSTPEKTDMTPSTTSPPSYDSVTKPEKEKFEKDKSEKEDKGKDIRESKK
hNaV1.2, sequence (Q07699 19-218, further chain): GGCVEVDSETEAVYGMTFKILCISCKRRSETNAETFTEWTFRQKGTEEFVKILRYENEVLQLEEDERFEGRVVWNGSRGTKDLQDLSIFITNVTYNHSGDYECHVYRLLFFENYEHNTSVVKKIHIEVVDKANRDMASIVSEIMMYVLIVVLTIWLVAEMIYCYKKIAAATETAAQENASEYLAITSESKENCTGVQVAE
Description: as §2, with “HEK293T cells expressing the human CaV3.2 channel (a generous gift from Prof. Emmanuel Bourinet, Institut de Génomique Fonctionnelle, Université de Montpellier, France, and Prof. Edward Perez-Reyes, University of Virginia School of Medicine, USA) were grown in Dulbecco’s MEM supplemented with 10% FBS, 100 U/mL penicillin, 100 µg/mL streptomycin, and 750 µg/mL geneticin.” left out
(§3) Sodium channel currents were recorded from HEK293 cells expressing human NaV isoforms together with the β1 auxiliary subunit (SB Drug Discovery, Glasgow, UK) using the QPatch 16X automated whole-cell patch-clamp platform (Sophion Bioscience A/S, Ballerup, Denmark). […] For determining the potency of Oa1a peptides to inhibit peak current, the maximum peak current within the 20 ms at 0 mV was measured. For determining the potency of Oa1a-NH2 to slow fast inactivation, peak current values were measured at 20 ms of the 0 mV depolarization step. […]
as §1, with “Electrophysiological data analysis was conducted using GraphPad Prism (version 8; GraphPad Software, San Diego, CA, USA). Nonlinear regression was applied to fit the concentration–response relationships using a variable Hill slope: log(inhibitor) versus normalized response for determining IC50 values, and log(agonist) versus normalized response for EC50 calculations.” left out

[4] = target: NaV1.1 (Homo sapiens, UniProt P35498); experiment: Off-rate / reversibility on NaV1.1, patch clamp with saline washes; assay type: cell-based
Description: For off-rate measurements, cells at a holding potential −80 mV were incubated with peptide for 10 min at a concentration equivalent to 10 times their IC50 for the NaV subtype being analyzed, followed by saline washes. Na^+ currents were assessed every 10 s utilizing a holding potential −80 mV and currents elicited by 20 ms voltage step to 0 mV from a −120 mV conditioning pulse applied for 200 ms. Ion currents (INa) plotted as I/Imax, where I = current value and Imax = highest current value within the experiment.
as §1

[5] = target: NaV1.3 (Homo sapiens, UniProt Q9NY46); experiment: Slowing of fast inactivation of NaV1.3; assay type: cell-based
NaV1.3, sequence (Q9NY46 whole entry, canonical isoform): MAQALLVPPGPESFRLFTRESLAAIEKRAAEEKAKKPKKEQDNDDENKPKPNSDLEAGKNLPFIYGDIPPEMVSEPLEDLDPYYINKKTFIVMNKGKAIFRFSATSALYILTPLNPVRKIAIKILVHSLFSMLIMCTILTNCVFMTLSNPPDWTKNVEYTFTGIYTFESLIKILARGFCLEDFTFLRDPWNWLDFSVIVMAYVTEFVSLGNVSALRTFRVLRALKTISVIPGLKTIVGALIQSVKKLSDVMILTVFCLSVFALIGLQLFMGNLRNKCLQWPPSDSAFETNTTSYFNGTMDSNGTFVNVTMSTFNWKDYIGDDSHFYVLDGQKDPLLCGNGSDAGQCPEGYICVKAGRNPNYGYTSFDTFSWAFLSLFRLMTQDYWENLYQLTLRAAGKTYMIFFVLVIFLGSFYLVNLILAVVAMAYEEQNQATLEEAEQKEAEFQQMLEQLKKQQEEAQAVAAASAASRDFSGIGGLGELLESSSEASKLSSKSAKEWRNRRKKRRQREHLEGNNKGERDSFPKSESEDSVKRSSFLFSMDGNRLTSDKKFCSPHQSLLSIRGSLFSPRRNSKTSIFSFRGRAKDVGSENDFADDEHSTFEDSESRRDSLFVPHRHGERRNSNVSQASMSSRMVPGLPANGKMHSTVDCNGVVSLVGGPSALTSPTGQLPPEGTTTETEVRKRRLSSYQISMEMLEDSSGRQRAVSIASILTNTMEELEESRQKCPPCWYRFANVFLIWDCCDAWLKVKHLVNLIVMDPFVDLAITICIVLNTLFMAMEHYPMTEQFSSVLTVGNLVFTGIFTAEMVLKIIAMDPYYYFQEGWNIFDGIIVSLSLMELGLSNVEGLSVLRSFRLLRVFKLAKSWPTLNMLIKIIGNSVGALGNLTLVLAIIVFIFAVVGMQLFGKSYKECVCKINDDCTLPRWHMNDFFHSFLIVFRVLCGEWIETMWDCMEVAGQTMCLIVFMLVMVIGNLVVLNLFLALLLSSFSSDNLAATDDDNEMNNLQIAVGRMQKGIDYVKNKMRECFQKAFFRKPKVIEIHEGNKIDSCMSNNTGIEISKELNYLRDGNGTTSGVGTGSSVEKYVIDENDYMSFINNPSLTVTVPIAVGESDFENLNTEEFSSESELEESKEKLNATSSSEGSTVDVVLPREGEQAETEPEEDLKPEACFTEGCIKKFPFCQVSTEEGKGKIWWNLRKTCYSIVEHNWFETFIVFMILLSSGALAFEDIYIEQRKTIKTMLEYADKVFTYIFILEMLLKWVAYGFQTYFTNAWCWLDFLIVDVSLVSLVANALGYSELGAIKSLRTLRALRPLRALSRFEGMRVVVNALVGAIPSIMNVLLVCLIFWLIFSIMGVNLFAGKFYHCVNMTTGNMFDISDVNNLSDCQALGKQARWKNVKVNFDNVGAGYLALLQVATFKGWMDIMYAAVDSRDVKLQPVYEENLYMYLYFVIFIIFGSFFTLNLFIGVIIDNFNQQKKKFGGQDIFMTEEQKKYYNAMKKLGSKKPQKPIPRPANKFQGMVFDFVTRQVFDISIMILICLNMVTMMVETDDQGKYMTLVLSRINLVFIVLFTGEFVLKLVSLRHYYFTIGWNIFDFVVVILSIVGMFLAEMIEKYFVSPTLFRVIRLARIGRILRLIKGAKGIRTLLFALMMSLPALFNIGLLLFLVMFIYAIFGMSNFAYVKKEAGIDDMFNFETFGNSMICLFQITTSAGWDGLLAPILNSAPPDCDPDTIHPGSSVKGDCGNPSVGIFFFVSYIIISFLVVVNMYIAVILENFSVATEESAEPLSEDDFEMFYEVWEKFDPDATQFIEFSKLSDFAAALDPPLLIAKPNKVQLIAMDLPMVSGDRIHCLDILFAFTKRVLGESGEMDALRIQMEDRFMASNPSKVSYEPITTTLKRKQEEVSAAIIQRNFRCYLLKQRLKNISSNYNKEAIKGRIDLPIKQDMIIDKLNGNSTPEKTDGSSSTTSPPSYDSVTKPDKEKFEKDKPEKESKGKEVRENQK
NaV1.3, sequence (Q07699 19-218, further chain): as the sequence (Q07699 19-218, further chain) above
Description: Sodium channel currents were recorded from HEK293 cells expressing human NaV isoforms together with the β1 auxiliary subunit (SB Drug Discovery, Glasgow, UK) using the QPatch 16X automated whole-cell patch-clamp platform (Sophion Bioscience A/S, Ballerup, Denmark). The external recording solution contained (in mM) the following: 140 NaCl, 3 KCl, 1 CaCl2, 1 MgCl2, 0.1 CdCl2, 20 tetraethylammonium chloride (TEA-Cl), and 5 HEPES; pH was adjusted to 7.3 and osmolarity to 320 mOsm. The internal (pipette) solution consisted of (in mM) the following: 140 CsF, 10 NaCl, 10 HEPES, and 1/5 EGTA/CsOH, also adjusted to pH 7.3 and 320 mOsm. Cells were voltage-clamped at a holding potential of −80 mV, and inward Na^+ currents were evoked by 20 ms depolarizing pulses to 0 mV following a 200 ms hyperpolarizing prepulse to −120 mV. To obtain concentration–response curves, cells at holding potential were incubated for 5 min with increasing concentrations of Oa1a peptides. For determining the potency of Oa1a peptides to inhibit peak current, the maximum peak current within the 20 ms at 0 mV was measured. For determining the potency of Oa1a-NH2 to slow fast inactivation, peak current values were measured at 20 ms of the 0 mV depolarization step. Ion currents (INa) were plotted as I/Imax, where I = current value and Imax = highest current value within the experiment.
as §1

[6] = target: hNaV1.6 (Homo sapiens, UniProt Q9UQD0); experiment: hNaV1.6 peak current inhibition, automated whole-cell patch clamp (QPatch 16X); assay type: cell-based; conditions: HEK293 + β1; holding −80 mV, 20 ms step to 0 mV from −120 mV 200 ms prepulse; 5 min incubation; mean ± SEM, 3 to 9 independent experiments; read-out: IC50, inhibition of peak current, NaV1.6
Description: as §2, with “HEK293T cells expressing the human CaV3.2 channel (a generous gift from Prof. Emmanuel Bourinet, Institut de Génomique Fonctionnelle, Université de Montpellier, France, and Prof. Edward Perez-Reyes, University of Virginia School of Medicine, USA) were grown in Dulbecco’s MEM supplemented with 10% FBS, 100 U/mL penicillin, 100 µg/mL streptomycin, and 750 µg/mL geneticin.” left out
as §3
as §1, with “Electrophysiological data analysis was conducted using GraphPad Prism (version 8; GraphPad Software, San Diego, CA, USA). Nonlinear regression was applied to fit the concentration–response relationships using a variable Hill slope: log(inhibitor) versus normalized response for determining IC50 values, and log(agonist) versus normalized response for EC50 calculations.” left out

CC(C)C[C@@H]1NC(=O)[C@H](Cc2ccccc2)NC(=O)[C@H](Cc2ccc(O)cc2)NC(=O)[C@H](CCCNC(=N)N)NC(=O)[C@@H](NC(=O)[C@@H](N)CCC(=O)O)CSSC[C@@H]2NC(=O)[C@@H]3CSSC[C@@H](C(=O)N[C@H](C(=O)N[C@@H](Cc4c[nH]c5ccccc45)C(=O)N[C@@H](CC(=O)O)C(=O)N[C@@H](Cc4c[nH]c5ccccc45)C(=O)N[C@H](C(=O)N[C@@H](Cc4ccccc4)C(N)=O)[C@@H](C)O)C(C)C)NC(=O)[C@H](Cc4c[nH]c5ccccc45)NC(=O)[C@H](CCC(N)=O)NC(=O)[C@H](Cc4c[nH]cn4)NC(=O)[C@H](CCCCN)NC(=O)[C@H](CC(N)=O)NC(=O)[C@H](Cc4c[nH]cn4)NC(=O)[C@H](CSSC[C@H](NC(=O)CNC(=O)CNC1=O)C(=O)N[C@@H](CO)C(=O)N[C@@H](CCC(N)=O)C(=O)NCC(=O)N[C@@H](CCC(=O)O)C(=O)N[C@@H](CCCCN)C(=O)N3)NC(=O)[C@H](C(C)C)NC(=O)[C@H](CC(C)C)NC(=O)[C@H](Cc1c[nH]cn1)NC(=O)[C@H](CCC(=O)O)NC2=O [sOa1a-NH2] (H-ECRYFLGGCSQGEKCCEHLVCHNKHQWCVWDWTF-NH2; disulfide 2-16, 9-21, 15-28; N-terminus assumed)
V50 of steady-state activation in presence of peptide, NaV1.7 ([1]; control V50 = −28 ± 0.5 mV (sOa1a-NH2 experiment), −25 ± 0.7 mV (sOa1a-OH experiment), 5 min at IC50 concentration, mean ± SEM, 3 to 5 repeats): −30 mV
V50 of steady-state inactivation in presence of peptide, NaV1.7 ([1]; control V50 = −66 ± 0.7 mV (sOa1a-NH2 experiment), −66 ± 0.3 mV (sOa1a-OH experiment), 5 min at IC50 concentration, mean ± SEM, 3 to 5 repeats): −69 mV
Effect on current–voltage relationships (activation, steady-state inactivation), NaV1.7 ([1]; peptide at IC50 concentration): remained nearly unaltered; also recorded: did not alter the voltage of activation or the steady-state inactivation
NaV subtype preference of inhibition (in words) [2]: strong preference for inhibiting NaV1.1
IC50 [3]: 0.154 ± 0.007 µM
95% CI of off-rate (dissociation time), NaV1.1 ([4]; peptide at 10× IC50 for 10 min, then saline washes, 95% CI, 3 to 5 independent repeats): Off-rate 4.6 min (95% CI = 4.27 to 4.97 min)
Reversibility on NaV1.1 by washing ([4]; peptide at 10× IC50 for NaV1.1, then washing): completely reversed by washing
Increase in off-rate through C-terminal amidation, NaV1.1 ([4]; sOa1a-NH2 vs sOa1a-OH): 1 min
Slowing of fast inactivation of NaV1.3 (in words) ([5]; closed-state voltage protocol, current traces, concentrations up to those of IC50 curves): strongly slowing the fast inactivation of NaV1.3
EC50 ([5]; current measured at 20 ms of the 0 mV depolarization step, 5 min incubation, mean ± SEM, 3 to 5 repeats): 0.0229 ± 0.0018 µM
IC50 [6]: 0.223 ± 0.018 µM
